According to publication PMC12423841 (ACS Omega, 2025):

Tests used:
[1] = target: protein S (S:D614G) (Severe acute respiratory syndrome coronavirus 2, UniProt P0DTC2, D614G); parameters: species or system SARS-CoV-2
[2] = target: RBDWuhan (SARS-CoV-2 spike RBD, Wuhan-Hu-1 variant) (Severe acute respiratory syndrome coronavirus 2, UniProt P0DTC2); assay type: binding; conditions: read-out: K D values RBDWuhan
[3] = target: SWuhan (SARS-CoV-2 S protein HexaPro, Wuhan-Hu-1 variant) (Severe acute respiratory syndrome coronavirus 2, UniProt P0DTC2, A892P/A899P/A942P/F817P/K986P/V987P); assay type: binding; conditions: read-out: K D values SWuhan
[4] = target: RBDBA.1 (SARS-CoV-2 spike RBD, Omicron BA.1 variant) (Severe acute respiratory syndrome coronavirus 2, UniProt P0DTC2, E484A/G339D/G446S/G496S/K417N/N440K/N501Y/Q493R/Q498R/S371L/S373P/S375F/S477N/T478K/Y505H); assay type: binding; conditions: read-out: K D values RBDBA.1
[5] = target: SBA.1 (SARS-CoV-2 S protein, Omicron BA.1 variant) (Severe acute respiratory syndrome coronavirus 2, UniProt P0DTC2, A67V/D614G/D796Y/DEL143-145/DEL211-211/DEL69-70/E484A/G142D/G339D/G446S/G496S/H655Y/INS214EPE/K417N/L212I/L981F/N440K/N501Y/N679K/N764K/N856K/N969K/P681H/Q493R/Q498R/Q954H/S371L/S373P/S375F/S477N/T478K/T547K/T95I/Y505H, form not given); assay type: binding; conditions: read-out: K D values SBA.1

Compound	architecture of spikes by negative-stain electron microscopy [1]	Kd [2] [µM]	Kd [3] [µM]	Kd [4] [µM]	Kd [5] [µM]
CCCCCCCCc1ccc(CCC(N)(CO)CO)cc1 [fingolimod]	do not damage the architecture of the proteins				
catechin		> 1000	927 ± 76	> 1000	> 1000
